Columns and labels:
[1] = tested on: Sicklepod, Cassia obtusifolia; experiment: Preemergence herbicidal evaluation, CASOB; format: in vivo, L.; conditions: 0.2500 kg/ha
How it was run: (§1)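 Compound is applied preemergence: seeds are sown in potting soil, and cups are sprayed with an aqueous acetone solution giving roughly 0.0156 to 0.500 kg/ha. After 4–5 weeks in the greenhouse, each cup is scored 0–9 by eye against a control.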

CYPIR Rice Flatsedge = experiment: Preemergence weed control, flooded paddy (Table III); format: in vivo, Cyperus iria
How it was run: (§2)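 Seeds or propagules sown in silt loam under 1.5 to 3 cm standing flood water; compound in 50/50 aqueous/acetone pipetted into the water at about 0.0313 to 0.500 kg/ha active ingredient. Greenhouse-held; herbicidal effect rated on a scale 3-4 weeks after treatment.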

Soybean, Glycine max [2] = experiment: Postemergence herbicidal evaluation, GLXMA; format: in vivo, (L.) Merr.; conditions: 0.2500 kg/ha
Procedure: In the tests, seedling plants are grown in jiffy flats for about two weeks. The test compounds are dispersed in 50/50 acetone/water mixtures containing 0.5% TWEEN®20, a polyoxyethylene sorbitan monolaurate surfactant of Atlas Chemical Industries, in sufficient quantities to provide the equivalent of about 0.0157 kg to 0.500 kg per hectare of active compound when applied to the plants through a spray nozzle operating at 40 psi for a predetermined time. After spraying, the plants are placed on greenhouse benches and are cared for in accordance with conventional greenhouse procedures. From four to five weeks after treatment, the seedling plants are examined and rated according to the rating system set forth below. Where more than one test is involved for a given compound, the data are averaged.
(§3) Results of herbicide evaluation are expressed on a rating scale (0-9). The scale is based upon a visual observation of plant stand, vigor, malformation, size, chlorosis and overall plant appearance as compared with a control.

[3] = tested on: ECHORC Watergrass (Calif.); experiment: Preemergence weed control, flooded paddy (Table III); format: in vivo, Echinochloa oryzoides
How it was run: as §2

[4] = tested on: Rice, Tebonnet, Oryza sativa; experiment: Postemergence herbicidal evaluation, ORYSAT; format: in vivo, (L.) Tebonnet
How it was run: (§4)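 Scoring four to five weeks after treatment used a 0–9 scale based on plant appearance versus control. Treatment: 40 psi spray of about 0.0157–0.500 kg/ha onto two-week seedlings, compound dispersed in acetone/water 50/50 with 0.5% TWEEN 20.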

[5] = tested on: Ragweed, Common, Ambrosia artemisifolia; experiment: Postemergence herbicidal evaluation, AMBEL; format: in vivo, L.
How it was run: as §4

[6] = tested on: Lambsquarters, Common, Chenopodium album; experiment: Postemergence herbicidal evaluation, CHEAL; format: in vivo, L.
How it was run: as §4

Soybean, Glycine max [7] = experiment: Preemergence herbicidal evaluation, GLXMA; format: in vivo, (L.) Merr.; conditions: 0.2500 kg/ha
From the text: as §3
The preemergence herbicidal activity of the test compounds of the present invention is exemplified by the following tests in which the seeds of a variety of monocotyledonous and dicotyledonous plants are separately mixed with potting soil and planted on top of approximately one inch of soil in separate pint cups. After planting, the cups are sprayed with the selected aqueous acetone solution containing test compound in sufficient quantity to provide the equivalent of about 0.0156 to 0.500 kg per hectare of test compound per cup. The treated cups are then placed on greenhouse benches, watered and cared for in accordance with conventional greenhouse procedures. From four to five weeks after treatment, the tests are terminated and each cup is examined and rated according to the rating system provided in Example 185.
The compounds evaluated are reported by compound number given in Example 185.

[8] = tested on: Barnyardgrass, Echinochloa crus-galli; experiment: Postemergence herbicidal evaluation, ECHCG; format: in vivo, (L.) Beau
How it was run: as §4

Corn, Field, Zea mays [9] = experiment: Preemergence herbicidal evaluation, ZEAMX; format: in vivo, L.; conditions: 0.2500 kg/ha
How it was run: as §1

[10] = tested on: Morningglory Spp., Ipomoea Spp.; experiment: Preemergence herbicidal evaluation, IPOSS; format: in vivo; conditions: 0.2500 kg/ha
How it was run: as §1

[11] = tested on: Velvetleaf, Abutilon theophrasti; experiment: Preemergence herbicidal evaluation, ABUTH; format: in vivo, Medic.; conditions: 0.2500 kg/ha
How it was run: as §1

[12] = tested on: Soybean, Williams, Glycine max; experiment: Preemergence herbicidal evaluation, GLXMAW; format: in vivo, (L.) Merr. cv Williams; conditions: 0.2500 kg/ha
How it was run: as §1

Galium, Galium aparine = experiment: Preemergence herbicidal evaluation, GALAP; format: in vivo; conditions: 0.2500 kg/ha
How it was run: as §1

[13] = tested on: Lambsquarters, Common, Chenopodium album; experiment: Preemergence herbicidal evaluation, CHEAL; format: in vivo, L.; conditions: 0.2500 kg/ha
How it was run: as §1

[14] = tested on: Wheat, Winter, cv Riband, Triticum aestivum; experiment: Postemergence herbicidal evaluation, TRZAWR; format: in vivo
How it was run: as §4

[15] = tested on: Barnyardgrass, Echinochloa crus-galli; experiment: Preemergence herbicidal evaluation, ECHCG; format: in vivo, (L.) Beau; conditions: 0.2500 kg/ha
How it was run: as §1

Corn, Field, Zea mays [16] = experiment: Postemergence herbicidal evaluation, ZEAMX; format: in vivo, L.
How it was run: as §4

[17] = tested on: SAGPY Arrowhead (Pygmaea); experiment: Preemergence weed control, flooded paddy (Table III); format: in vivo, Sagittaria pygmaea
How it was run: as §2

[18] = tested on: Foxtail, Green, Setaria viridis; experiment: Preemergence herbicidal evaluation, SETVI; format: in vivo, (L.) Beau; conditions: 0.2500 kg/ha
How it was run: as §1

[19] = tested on: Soybean, Williams, Glycine max; experiment: Postemergence herbicidal evaluation, GLXMAW; format: in vivo, (L.) Merr. cv Williams; conditions: 0.0630 kg/ha
How it was run: as §4

[20] = tested on: Morningglory, Ivyleaf, Ipomoea hederacea; experiment: Preemergence herbicidal evaluation, IPOHE; format: in vivo, (L.) Jacq.; conditions: 0.2500 kg/ha
How it was run: as §1

[21] = tested on: ECHORC Watergrass (Calif.); experiment: Postemergence weed control, flooded paddy (Table IV); format: in vivo, Echinochloa oryzoides
How it was run: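 Rating scale scores taken 3–4 weeks post-treatment; compounds dosed in flood water (~0.0313–0.500 kg/ha) onto weeds 3–5 cm tall and 1.5–2.5 leaf rice under 1.5–3 cm standing water.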

## COC(=O)C(C)Oc1ccc(C)cc1-c1nsc2ccc(-n3c(=O)cc(C(F)(F)F)n(C)c3=O)cc12 (stereo not shown) [Compound 3]
[1]
  herbicide rating (0-9): 9.0
CYPIR Rice Flatsedge; 0.0313 kg/ha
  herbicidal effect rating: 9.0
CYPIR Rice Flatsedge; 0.0625 kg/ha
  herbicidal effect rating: 9.0
CYPIR Rice Flatsedge; 0.1250 kg/ha
  herbicidal effect rating: 9.0
CYPIR Rice Flatsedge; 0.2500 kg/ha
  herbicidal effect rating: 9.0
CYPIR Rice Flatsedge; 0.5000 kg/ha
  herbicidal effect rating: 9.0
Soybean, Glycine max [2]
  herbicide rating (0-9): 7.5
[3]; 0.0313 kg/ha
  herbicidal effect rating: 9.0
[3]; 0.0625 kg/ha
  herbicidal effect rating: 9.0
[3]; 0.1250 kg/ha
  herbicidal effect rating: 9.0
[3]; 0.2500 kg/ha
  herbicidal effect rating: 9.0
[3]; 0.5000 kg/ha
  herbicidal effect rating: 9.0
[4]; 0.0630 kg/ha
  herbicide rating (0-9): 7.2
[4]; 0.2500 kg/ha
  herbicide rating (0-9): 9.0
[5]; 0.0630 kg/ha
  herbicide rating (0-9): 9.0
[5]; 0.2500 kg/ha
  herbicide rating (0-9): 9.0
[6]; 0.0630 kg/ha
  herbicide rating (0-9): 9.0
[6]; 0.2500 kg/ha
  herbicide rating (0-9): 9.0
Soybean, Glycine max [7]
  herbicide rating (0-9): 4.0
[8]; 0.0630 kg/ha
  herbicide rating (0-9): 9.0
[8]; 0.2500 kg/ha
  herbicide rating (0-9): 9.0
Corn, Field, Zea mays [9]
  herbicide rating (0-9): 7.3
[10]
  herbicide rating (0-9): 9.0
[11]
  herbicide rating (0-9): 9.0
[12]
  herbicide rating (0-9): 5.0
Galium, Galium aparine
  herbicide rating (0-9): 7.6
[13]
  herbicide rating (0-9): 9.0
[14]; 0.0630 kg/ha
  herbicide rating (0-9): 8.8
[14]; 0.2500 kg/ha
  herbicide rating (0-9): 8.0
[15]
  herbicide rating (0-9): 8.3
Corn, Field, Zea mays [16]; 0.0630 kg/ha
  herbicide rating (0-9): 8.3
Corn, Field, Zea mays [16]; 0.2500 kg/ha
  herbicide rating (0-9): 9.0
[17]; 0.0313 kg/ha
  herbicidal effect rating: 0.0
[17]; 0.0625 kg/ha
  herbicidal effect rating: 2.0
[17]; 0.1250 kg/ha
  herbicidal effect rating: 6.0
[17]; 0.2500 kg/ha
  herbicidal effect rating: 8.0
[17]; 0.5000 kg/ha
  herbicidal effect rating: 9.0
[18]
  herbicide rating (0-9): 9.0
[19]
  herbicide rating (0-9): 7.0
[20]
  herbicide rating (0-9): 9.0
[21]; 0.1250 kg/ha
  herbicidal effect rating: 0.0
[21]; 0.2500 kg/ha
  herbicidal effect rating: 2.0
[21]; 0.5000 kg/ha
  herbicidal effect rating: 4.0

— US6156700A, “3-(1,2-Benzisothiazol- and isoxazol-5-yl)-2,4(1H,3H)-pyrimidinedione or thione and 3-(1,2-benzisothiazol- and isoxazol-5-yl)-4(3H)-pyrimidinone or thione herbicidal agents” (American Cyanmid Company, priority 1998, dated 2000)
